Assay results from PubChem BioAssay AID330 (DTP/NCI, 2004).
“And” between values parts separate entries of the source, which are not always exact repeats. Identical values can stand only once. Toxic doses and inconclusive results are not listed.

Test system: P388 leukemia ip, CD2F1 mice, survival T/C
Assay: NCI In Vivo Anticancer Drug Screen. Data for tumor model P388 Leukemia (intraperitoneal) in CD2F1 (CDF1) mice
Settings: endpoint: median survival time, higher = longer survival
Summary of the method: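 Mice carrying the transplanted tumor received test compound or vehicle. Survival was recorded in each group, and the value is the treated-group measurement divided by that of the vehicle-treated control group.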

[1] = dose: 25.0 mg/kg/injection, schedule: Q01DX009 (ip), vehicle: saline
[2] = dose: 100.0 mg/kg/injection, schedule: Q01DX009 (ip), vehicle: saline
[3] = dose: 25.0 mg/kg/injection, schedule: Q01DX005 (ip), vehicle: saline
[4] = dose: 50.0 mg/kg/injection, schedule: Q01DX005 (ip), vehicle: saline
[5] = dose: 50.0 mg/kg/injection, schedule: Q04DX003 (ip), vehicle: saline with Tween-80
[6] = dose: 200.0 mg/kg/injection, schedule: Q04DX003 (ip), vehicle: saline with Tween-80
[7] = dose: 100.0 mg/kg/injection, schedule: Q01DX009 (ip), vehicle: saline with Tween-80
[8] = dose: 50.0 mg/kg/injection, schedule: Q01DX005 (ip), vehicle: saline with Tween-80
[9] = dose: 100.0 mg/kg/injection, schedule: Q01DX005 (ip), vehicle: saline with Tween-80
[10] = dose: 200.0 mg/kg/injection, schedule: Q01DX005 (ip), vehicle: saline with Tween-80

For C=C1CCC2C(OC(=O)C2(O)COC(C)=O)C2C(=C)C(O)CC12 (stereo not given), the T/C (dose: 10.63 mg/kg/injection, schedule: Q01DX005 (ip), vehicle: Klucel (hydroxypropylcellulose) (HPC)) was 99 % of control, the T/C (dose: 21.25 mg/kg/injection, schedule: Q01DX005 (ip), vehicle: Klucel (hydroxypropylcellulose) (HPC)) was 104 % of control and the T/C (dose: 42.5 mg/kg/injection, schedule: Q01DX005 (ip), vehicle: Klucel (hydroxypropylcellulose) (HPC)) was 100 % of control. The T/C (dose: 85.0 mg/kg/injection, schedule: Q01DX005 (ip), vehicle: Klucel (hydroxypropylcellulose) (HPC)) was 106 % of control and the T/C (dose: 170.0 mg/kg/injection, schedule: Q01DX005 (ip), vehicle: Klucel (hydroxypropylcellulose) (HPC)) was 106 % of control.
With NS(=O)(=O)c1cc2c(cc1Cl)NC(Cc1ccccc1)NS2(=O)=O (stereo not given) the T/C (dose: 60.0 mg/kg/injection, schedule: Q01DX005 (ip), vehicle: saline with Tween-80) was 100 % of control, the T/C (dose: 120.0 mg/kg/injection, schedule: Q01DX005 (ip), vehicle: saline with Tween-80) was 93 % of control and the T/C (dose: 240.0 mg/kg/injection, schedule: Q01DX005 (ip), vehicle: saline with Tween-80) was 93 % of control.
CCOC(=O)CC(C(=O)OCC)C(=O)OCC was tested, and the T/C [1] was 97 % of control, the T/C (dose: 50.0 mg/kg/injection, schedule: Q01DX009 (ip), vehicle: saline) was 100 % of control and the T/C [2] was 103 % of control. For the same molecule, the T/C (dose: 200.0 mg/kg/injection, schedule: Q01DX009 (ip), vehicle: saline) was 106 % of control.
For COc1ccc(C(=O)C(C)(c2nc3n(c2O)C(=N)N=N3)c2nc3n(c2O)C(=N)N=N3)cc1 (stereo not given), the T/C (dose: 60.0 mg/kg/injection, schedule: Q01DX005 (ip), vehicle: saline) was 100 % of control, the T/C (dose: 120.0 mg/kg/injection, schedule: Q01DX005 (ip), vehicle: saline) was 102 % of control and the T/C (dose: 240.0 mg/kg/injection, schedule: Q01DX005 (ip), vehicle: saline) was 106 % of control.
O=C(N/N=C/c1ccccn1)c1ccccc1[O-].O=C(N/N=C/c1ccccn1)c1ccccc1[O-].[Mn+2] was tested, and the T/C (dose: 50.0 mg/kg/injection, schedule: Q01DX005 (ip), vehicle: Klucel (hydroxypropylcellulose) (HPC)) was 103 % of control, the T/C (dose: 100.0 mg/kg/injection, schedule: Q01DX005 (ip), vehicle: Klucel (hydroxypropylcellulose) (HPC)) was 101 % of control and the T/C (dose: 200.0 mg/kg/injection, schedule: Q01DX005 (ip), vehicle: Klucel (hydroxypropylcellulose) (HPC)) was 107 % of control.
With COC(=O)c1ccc(OC)c(OC)c1-c1c(C(=O)OC)c(C(=O)OC)c2n1CCc1cc3c(cc1-2)OCO3 the T/C (dose: 50.0 mg/kg/injection, schedule: Q04DX002 (ip), vehicle: saline with Tween-80) was 103 % of control, the T/C (dose: 100.0 mg/kg/injection, schedule: Q04DX002 (ip), vehicle: saline with Tween-80) was 100 % of control and the T/C (dose: 200.0 mg/kg/injection, schedule: Q04DX002 (ip), vehicle: saline with Tween-80) was 90 % of control.
In the case of COc1cccc(Oc2cccc[n+]2CC(C)=O)c1, the T/C [3] is reported as 98 % of control and the T/C [4] is reported as 98 % of control.
COc1cc(C=Nc2cc(Cl)ccc2-n2ccnc2C)ccc1N(CCCl)CCCl was tested, and the T/C [5] was 222 % of control and the T/C [6] was 88 % of control.
COc1ccc(-c2coc3cc(O)ccc3c2=O)c(O)c1OC was tested, and the T/C (dose: 100.0 mg/kg/injection, schedule: Q04DX003 (ip), vehicle: Klucel (hydroxypropylcellulose) (HPC)) was 97 % of control, the T/C (dose: 200.0 mg/kg/injection, schedule: Q04DX003 (ip), vehicle: Klucel (hydroxypropylcellulose) (HPC)) was 101 % of control and the T/C (dose: 400.0 mg/kg/injection, schedule: Q04DX003 (ip), vehicle: Klucel (hydroxypropylcellulose) (HPC)) was 99 % of control.
For Cc1csc(N)n1, the T/C (dose: 100.0 mg/kg/injection, schedule: Q04DX002 (ip), vehicle: saline) was 97 % of control, the T/C (dose: 200.0 mg/kg/injection, schedule: Q04DX002 (ip), vehicle: saline) was 95 % of control and the T/C (dose: 400.0 mg/kg/injection, schedule: Q04DX002 (ip), vehicle: saline) was 101 % of control.
With CCOC(=O)CCC(C)(C#N)C(C#N)C(=O)OCC (stereo not given) the T/C [7] was 100 % of control, the T/C (dose: 100.0 mg/kg/injection, schedule: Q04DX003 (ip), vehicle: saline with Tween-80) was 100 % of control and the T/C [6] was 100 % of control. For the same molecule, the T/C (dose: 400.0 mg/kg/injection, schedule: Q01DX009 (ip), vehicle: saline with Tween-80) was 100 % of control and the T/C (dose: 400.0 mg/kg/injection, schedule: Q04DX003 (ip), vehicle: saline with Tween-80) was 100 % of control.
In the case of COc1ncnc2c1nnn2C1OC(CO)C(O)C1O (stereo not given), the T/C (dose: 25.0 mg/kg/injection, schedule: Q04DX003 (ip), vehicle: saline) is reported as 96 % of control, the T/C (dose: 50.0 mg/kg/injection, schedule: Q04DX003 (ip), vehicle: saline) is reported as 105 % of control and the T/C (dose: 100.0 mg/kg/injection, schedule: Q04DX003 (ip), vehicle: saline) is reported as 100 % of control. The T/C (dose: 200.0 mg/kg/injection, schedule: Q04DX003 (ip), vehicle: saline) was 109 % of control.
For O=[n+]1c2ccccc2n([O-])c2ccccc21.[Cl][Ni][Cl], the T/C (dose: 6.25 mg/kg/injection, schedule: Q04DX003 (ip), vehicle: saline with Tween-80) was 102 % of control and 94 % of control, the T/C (dose: 12.5 mg/kg/injection, schedule: Q04DX003 (ip), vehicle: saline with Tween-80) was 111 % of control and 121 % of control and the T/C (dose: 25.0 mg/kg/injection, schedule: Q04DX003 (ip), vehicle: saline with Tween-80) was 115 % of control and 121 % of control. For the same molecule, the T/C [5] was 114 % of control.
In the case of O=C(NC(c1ccccc1)N1CCOCC1)c1ccccc1 (stereo not given), the T/C (dose: 50.0 mg/kg/injection, schedule: Q01DX005 (ip), vehicle: Klucel + Tween-80) is reported as 108 % of control, the T/C (dose: 100.0 mg/kg/injection, schedule: Q01DX005 (ip), vehicle: Klucel + Tween-80) is reported as 112 % of control and the T/C (dose: 200.0 mg/kg/injection, schedule: Q01DX005 (ip), vehicle: Klucel + Tween-80) is reported as 114 % of control.
O=C1C=CC(=Nc2ccc3c(c2)C(=O)c2ccccc2-3)O1 was tested, and the T/C [8] was 111 % of control and the T/C [9] was 115 % of control.
In the case of CC1=NC(C)(Cc2ccccc2)SC1c1ccccc1 (stereo not given), the T/C [8] is reported as 110 % of control, the T/C [4] is reported as 100 % of control and the T/C [9] is reported as 96 % of control. The T/C (dose: 100.0 mg/kg/injection, schedule: Q01DX005 (ip), vehicle: saline) was 106 % of control and the T/C (dose: 200.0 mg/kg/injection, schedule: Q01DX005 (ip), vehicle: saline) was 101 % of control.
O=C1CCC(=O)Nc2ccc3nc4ccccc4c(c3c2)SCCCCCCCCCCCCSc2c3ccccc3nc3ccc(cc23)N1 was tested, and the T/C [8] was 110 % of control, the T/C [9] was 97 % of control and the T/C [10] was 107 % of control.
For S=C(c1c(Cl)cccc1Cl)N1CN2CCCN(C2)C1, the T/C (dose: 50.0 mg/kg/injection, schedule: Q01DX009 (ip), vehicle: saline with Tween-80) was 111 % of control, the T/C [7] was 98 % of control and the T/C (dose: 200.0 mg/kg/injection, schedule: Q01DX009 (ip), vehicle: saline with Tween-80) was 101 % of control.
COC(=O)c1[c]([Sn]([CH3])([CH3])[CH3])n[n]([Sn]([CH3])([CH3])[CH3])c1C(=O)OC was tested, and the T/C (dose: 6.25 mg/kg/injection, schedule: Q04DX003 (ip), vehicle: saline) was 98 % of control and the T/C (dose: 12.5 mg/kg/injection, schedule: Q04DX003 (ip), vehicle: saline) was 98 % of control.
CCCCNC1CC(OC2CC(O)(C(C)=O)Cc3c(O)c4c(c(O)c32)C(=O)c2c(OC)cccc2C4=O)OC(C)C1O (stereo not given) was tested, and the T/C (dose: 2.0 mg/kg/injection, schedule: Q01DX009 (ip), vehicle: water) was 102 % of control, the T/C (dose: 4.0 mg/kg/injection, schedule: Q01DX009 (ip), vehicle: water) was 100 % of control and the T/C (dose: 8.0 mg/kg/injection, schedule: Q01DX009 (ip), vehicle: water) was 118 % of control. For the same molecule, the T/C (dose: 16.0 mg/kg/injection, schedule: Q01DX009 (ip), vehicle: water) was 118 % of control.
With O=C(NCSC1=NCCS1)NCSC1=NCCS1 the T/C (dose: 50.0 mg/kg/injection, schedule: Q01DX009 (ip), vehicle: suspension in saline) was 101 % of control and 103 % of control, the T/C [2] was 91 % of control and the T/C (dose: 100.0 mg/kg/injection, schedule: Q01DX009 (ip), vehicle: suspension in saline) was 100 % of control and 93 % of control. The T/C (dose: 200.0 mg/kg/injection, schedule: Q01DX009 (ip), vehicle: suspension in saline) was 100 % of control and 105 % of control, the T/C (dose: 400.0 mg/kg/injection, schedule: Q01DX009 (ip), vehicle: saline) was 94 % of control and the T/C (dose: 400.0 mg/kg/injection, schedule: Q01DX009 (ip), vehicle: suspension in saline) was 101 % of control and 98 % of control.
For CCOC(=O)C1CSC2(CC(C)CC(C)(C)C2)N1 (stereo not given), the T/C [8] was 106 % of control, the T/C [9] was 107 % of control and the T/C [10] was 104 % of control.
N=c1ccn(O)cc1 was tested, and the T/C (dose: 6.25 mg/kg/injection, schedule: Q01DX005 (ip), vehicle: saline) was 101 % of control, the T/C (dose: 12.5 mg/kg/injection, schedule: Q01DX005 (ip), vehicle: saline) was 107 % of control and the T/C (dose: 12.5 mg/kg/injection, schedule: Q01DX009 (ip), vehicle: saline) was 111 % of control. The T/C [3] was 102 % of control and the T/C [1] was 111 % of control.
